Measured values as given in PubChem BioAssay (NCI).
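Results reflect a 48-hour exposure of cells in 96-well plates to compound at five concentrations. GI50 = concentration required for 50% inhibition of growth. The concentration for full growth arrest is given as TGI.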

Key:
Test in all cases: NCI tumour cell line growth inhibition, 48 h
BT-549 breast = system: BT-549 breast
CAKI-1 renal = system: CAKI-1 renal
HCC-2998 colon = system: HCC-2998 colon
HCT-15 colon = system: HCT-15 colon
NCI/ADR-RES ovarian = system: NCI/ADR-RES ovarian
OVCAR-4 ovarian = system: OVCAR-4 ovarian
OVCAR-5 ovarian = system: OVCAR-5 ovarian
PC-3 prostate = system: PC-3 prostate
SF-295 CNS = system: SF-295 CNS
UACC-62 melanoma = system: UACC-62 melanoma

| Compound | GI50 (BT-549 breast) [µM] | TGI (BT-549 breast) [µM] | GI50 (CAKI-1 renal) [µM] | TGI (CAKI-1 renal) [µM] | GI50 (HCC-2998 colon) [µM] | TGI (HCC-2998 colon) [µM] | GI50 (HCT-15 colon) [µM] | TGI (HCT-15 colon) [µM] | GI50 (NCI/ADR-RES ovarian) [µM] | TGI (NCI/ADR-RES ovarian) [µM] | GI50 (OVCAR-4 ovarian) [µM] | TGI (OVCAR-4 ovarian) [µM] | GI50 (OVCAR-5 ovarian) [µM] | TGI (OVCAR-5 ovarian) [µM] | GI50 (PC-3 prostate) [µM] | TGI (PC-3 prostate) [µM] | GI50 (SF-295 CNS) [µM] | TGI (SF-295 CNS) [µM] | GI50 (UACC-62 melanoma) [µM] | TGI (UACC-62 melanoma) [µM] |
| --- | --- | --- | --- | --- | --- | --- | --- | --- | --- | --- | --- | --- | --- | --- | --- | --- | --- | --- | --- | --- |
| Fc1ccc(C2CC(c3cccc(Nc4ccncc4)c3)=NN2c2cc(Cl)cc(Cl)c2)cc1 (stereo not given) | 1.88 | 3.63 | 1.54 | 2.92 | 1.6 | 2.96 | 1.77 | 3.47 | 1.71 | 3.34 | 1.77 | 3.23 | 1.73 | 3.16 | 1.55 | 3.14 | 1.77 | 3.21 | 1.74 | 3.27 |
| COC(=O)/C=C\C(C#N)(C#N)N=Cc1ccc(C)s1 |  | 12.2 |  | 4.78 |  | 32.9 |  | 3.66 |  | 28.7 |  | 13.1 |  | 15.9 |  | 6.72 |  | 31.8 |  | 31 |
| O=C(NNc1cn[nH]c(=O)c1Cl)/C(=C/c1ccc2c(c1)OCO2)NC(=O)c1ccccc1 |  | 49.1 |  | 56.2 |  | > 100 |  | > 100 |  | > 100 |  | > 100 |  | > 100 |  | > 100 |  | > 100 |  | > 100 |
| O=C1OC2(C(F)(F)F)Oc3ccccc3CN2C12CCCCC2 (stereo not given) |  | > 100 |  | 56.1 |  | > 100 |  | 84.1 |  | > 100 |  | > 100 |  | > 100 |  | 88 |  | 86.8 |  | > 100 |
| COc1ccc(/C=C(\C(=C/c2ccc(OC)cc2)[N+](=O)[O-])[N+](=O)[O-])cc1 |  | 21.4 |  | 8.87 |  | 30.9 |  | 6.18 |  | 7.94 |  | 27.1 |  | 35.4 |  | > 39.7 |  | 30.2 |  | 9.38 |
| O=C(c1ccccc1)c1c(C(F)(F)F)n([O-])c2cc(Cl)c(Cl)cc2[n+]1=O |  | 4.8 |  | 2.93 |  | 4.11 |  | 2.76 |  | 6.36 |  | 3.12 |  | 3.41 |  | 4.03 |  | 7.31 |  | 8.28 |
| CN(C)CCOC(=O)c1ccc(N)cc1 |  | > 100 |  | > 100 |  | 31.4 |  | > 100 |  | > 100 |  | > 100 |  | > 100 |  | 35.1 |  | > 100 |  | > 100 |
| O=c1[nH]c2ccccc2nc1/C=C(\O)C(F)F |  | > 100 |  | > 100 |  | > 100 |  | > 100 |  | > 100 |  | > 100 |  | > 100 |  | > 100 |  | > 100 |  | > 100 |
| COC(=O)c1ccc(CCc2cc(O)ccc2O)cc1 |  | 25.6 |  | 12.9 |  | 59.6 |  | 27.5 |  | > 90.1 |  | 24.4 |  | 50.7 |  | 17.5 |  | > 70.5 |  | 33.9 |
| O=c1c2ccccc2n2nnc3ccc(NCCCNCCNCCCNc4ccc5nnn6c7ccccc7c(=O)c4c56)c1c32 |  | 18.9 |  | 12.8 |  | 6.51 |  | > 26.4 |  | > 25.5 |  | 21 |  | 18.1 |  | 16.3 |  | > 27.5 |  | > 50 |
| COc1ccc2c(c1)nc1n2C(N)=Nc2ccccc2S1 |  | > 100 |  | > 100 |  | > 100 |  | > 100 |  | > 100 |  | > 100 |  | > 100 |  | > 100 |  | > 100 |  | > 74.4 |
| COc1cc(/C=C2\N=C(c3ccccc3)N(/N=C3\C(=O)Nc4ccccc43)C2=O)cc(OC)c1OC |  | > 100 |  | > 100 |  | > 100 |  | > 100 |  | > 100 |  | > 100 |  | > 100 |  | > 100 |  | > 100 |  | > 100 |
| N#CC(C#N)=Cc1c(O)ccc2ccccc12 |  | 32.1 |  | 29.1 |  | 33.1 |  | 37.5 |  | 64.7 |  | 43.6 |  | 31.7 |  | 33.6 |  | 29.5 |  | 31.1 |
| Cc1cc(NS(=O)(=O)c2ccc(NC(=O)c3cccc4c(NNc5ccc(S(=O)(=O)N=C(N)N)cc5)c5ccccc5nc34)cc2)no1 |  | > 100 |  | > 100 |  | > 100 |  | > 100 |  | > 100 |  | > 100 |  | > 100 |  | > 100 |  | > 100 |  | > 100 |
| COc1ccc(-c2nc(-c3cc4ccccc4oc3=O)cs2)cc1 |  | > 100 |  | > 100 |  | > 100 |  | > 100 |  | > 100 |  | > 100 |  | > 100 |  | > 100 |  | > 100 |  | > 100 |
| C=C1C(=O)O[C@H]2C/C(C)=C/CC/C(C)=C/CC[C@@](C)(O)[C@@H](I)C[C@@H]12 |  | 6.62 |  | 22.4 |  | 25.6 |  | 20.1 |  | 24.7 |  | 15.4 |  | 30.2 |  | 21.1 |  | 32.8 |  | 23.9 |
| NS(=O)(=O)c1ccc(Nc2c3ccccc3nc3c(C(=O)NCCCN(CCO)CCO)cccc23)cc1 |  | 52.7 |  | > 100 |  | 54.8 |  | > 100 |  | > 100 |  | > 100 |  | 98.4 |  | > 100 |  | > 100 |  | 57.8 |
| CCN(CC)C(=S)N/N=C/c1ccccn1 |  | > 100 |  | > 100 |  | > 100 |  | > 100 |  | 0.692 |  | > 100 |  | > 100 |  | > 100 |  | > 77.1 |  | 0.392 |
